Source: ChEMBL document CHEMBL4402555, “Impact of the structure-activity relationship of AHL analogues on quorum sensing in Gram-negative bacteria” (Bioorg Med Chem, 2020)

Experiments:
[1] = Inhibition of LasR in Escherichia coli JLD271 harboring pSC11/pJN105L using CPRG as substrate incubated for 4 hrs by Miller assay method
[2] = target: T1, Transcriptional activator protein LuxR (Aliivibrio fischeri, UniProt P12746); assay: Antagonist activity at Aliivibrio fischeri LuxR by luminescence method
T1 sequence (P12746 whole entry): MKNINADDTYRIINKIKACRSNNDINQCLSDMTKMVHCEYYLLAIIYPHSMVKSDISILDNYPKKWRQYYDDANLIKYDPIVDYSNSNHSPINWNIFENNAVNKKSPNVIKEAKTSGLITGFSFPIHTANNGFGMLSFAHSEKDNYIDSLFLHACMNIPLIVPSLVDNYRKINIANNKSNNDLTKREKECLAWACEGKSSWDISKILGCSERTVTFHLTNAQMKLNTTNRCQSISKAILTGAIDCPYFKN

[3] = target: T2, Transcriptional activator protein LasR (Pseudomonas aeruginosa (strain ATCC 15692 / PAO1 / 1C / PRS 101 / LMG12228), UniProt P25084); assay: Antagonist activity at Pseudomonas aeruginosa LasR transfected with lasB-GFP by […] method
T2 sequence (P25084 whole entry): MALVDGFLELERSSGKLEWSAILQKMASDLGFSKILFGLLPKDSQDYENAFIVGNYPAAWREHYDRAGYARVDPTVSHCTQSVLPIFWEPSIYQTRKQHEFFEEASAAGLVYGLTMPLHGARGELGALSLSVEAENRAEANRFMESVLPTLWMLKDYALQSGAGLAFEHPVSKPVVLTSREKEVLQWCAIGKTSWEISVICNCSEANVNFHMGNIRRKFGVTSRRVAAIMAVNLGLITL

[4] = target: T1, Transcriptional activator protein LuxR; assay: Antagonist activity at Aliivibrio fischeri ES114 LuxR after 4 to 8 hrs by luminescence method
[5] = target: T1, Transcriptional activator protein LuxR; assay: Agonist activity at Aliivibrio fischeri LuxR by luminescence method
[6] = Activation of LasR in Escherichia coli JLD271 harboring pSC11/pJN105L using CPRG as substrate incubated for 4 hrs by Miller assay method
[7] = target: T3, Transcriptional activator protein LasR (Pseudomonas aeruginosa (strain ATCC 15692 / PAO1 / 1C / PRS 101 / LMG12228)) (UniProt P25084); assay: Antagonist activity at LasR in Pseudomonas aeruginosa PAO-JP2 harboring plasI-LVAgfp assessed as inhibition of GFP expression by measuring reduction in fluorescence intensity at 100 uM incubated for 6 hrs in presence of AI1 by fluorescence based competitive assay relative to control
T3 sequence (whole entry): T2 sequence (P25084 whole entry)

HL = assay: Cytotoxicty against human HL cells at 100 uM after 24 hrs by CellTiter Glo assay relative to control; assay type: cell-based
[8] = Inhibition of CviI/CviR in Chromobacterium violaceum ATCC 31532 assessed as reduction in violacein production incubated for 24 hrs
Pseudomonas aeruginosa [9] = assay: Inhibition of LasI/LasR in Pseudomonas aeruginosa ATCC 9027 assessed as reduction in protein-mediated transition from microcolonies to mature biofilm at 400 uM incubated for 22 hrs by crystal violet staining assay relative to control
Pseudomonas aeruginosa [10] = assay: Inhibition of LasI/LasR in Pseudomonas aeruginosa ATCC 15422 assessed as reduction in protein-mediated transition from microcolonies to mature biofilm at 400 uM incubated for 22 hrs by crystal violet staining assay relative to control
[11] = system: Pseudomonas aeruginosa PAO1; assay: Inhibition of LasI/LasR in Pseudomonas aeruginosa PAO1 assessed as reduction in swarming motility at 400 uM incubated for 18 hrs relative to control
[12] = target: T4, Regulatory protein SdiA (Escherichia coli (strain K12)) (UniProt P07026); assay: Inhibition of sdiA in Escherichia coli K-12 assessed as reduction in protein-mediated transition from microcolonies to mature biofilm at 400 uM incubated for 22 hrs by crystal violet staining assay relative to control
T4 sequence (whole entry): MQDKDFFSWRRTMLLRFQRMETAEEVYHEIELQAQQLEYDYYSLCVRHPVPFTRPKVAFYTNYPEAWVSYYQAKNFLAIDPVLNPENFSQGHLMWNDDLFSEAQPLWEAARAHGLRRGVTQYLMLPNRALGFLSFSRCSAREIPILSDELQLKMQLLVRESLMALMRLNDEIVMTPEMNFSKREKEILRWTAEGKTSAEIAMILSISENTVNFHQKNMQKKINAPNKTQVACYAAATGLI

[13] = system: Pseudomonas aeruginosa PAO1; assay: Inhibition of LasI/LasR in Pseudomonas aeruginosa PAO1 assessed as reduction in protein-mediated transition from microcolonies to mature biofilm at 400 uM incubated for 22 hrs by crystal violet staining assay relative to control
RAW264.7 = assay: Cytotoxicty against mouse RAW264.7 cells at 100 uM after 24 hrs by CellTiter Glo assay relative to control; assay type: cell-based; details: raw264.7, 24 h
[14] = system: Chromobacterium violaceum; assay: Inhibition of CviI/CviR in Chromobacterium violaceum ATCC 31532 assessed as reduction in violacein production at 40 uM incubated for 24 hrs relative to control
[15] = target: T2, Transcriptional activator protein LasR; assay: Activation of LasR in Pseudomonas aeruginosa PAO-JP2 harboring plasI-LVAgfp incubated for 6 hrs by fluorescence method
[16] = target: T2, Transcriptional activator protein LasR; assay: Inhibition of LasR in Pseudomonas aeruginosa PAO-JP2 harboring plasI-LVAgfp incubated for 6 hrs by fluorescence method
[17] = target: T3, Transcriptional activator protein LasR (Pseudomonas aeruginosa (strain ATCC 15692 / PAO1 / 1C / PRS 101 / LMG12228)); assay: Antagonist activity at LasR in Pseudomonas aeruginosa PAO1 assessed as inhibition of pyocyanin production at 50 uM incubated for 13 hrs relative to control
[18] = Inhibition of quorum sensing system in Pseudomonas aeruginosa transfected with lasB-lacZ in presence of PA1
[19] = Inhibition of quorum sensing system in Pseudomonas aeruginosa
[20] = Antagonist activity at LasR in Escherichia coli JLD271 harboring pSC11/ pJN105L using CPRG as substrate incubated for 4 hrs by Miller assay
[21] = target: T2, Transcriptional activator protein LasR; assay: Antagonist activity at LasR in Pseudomonas aeruginosa harboring plasI-LVAgfp assessed as inhibition of GFP production incubated for 6 hrs by fluorescence method
[22] = target: T1, Transcriptional activator protein LuxR; assay: Inhibition of Aliivibrio fischeri LuxR by luminescence method

## CCCCCCCCCNC(=O)CC(=O)c1ccccc1
[1]
  IC50: 2.3 µM

## O=C(CC(=O)NC1CCOC1=O)Cc1ccc(Cl)cc1 (stereo not given)
[2]
  IC50: 3 µM

## Cc1ccc(SCC(=O)N[C@H]2CCOC2=O)cc1
[3]
  IC50: 50 µM

## O=C(Cc1ccc(I)cc1)N[C@H]1CCOC1=O
[4]
  IC50: 0.9 µM

## O=C(CC(=O)NC1CCOC1=O)Cc1ccc(F)cc1 (stereo not given)
[2]
  IC50: 4 µM

## O=C(CCCC1CCCCC1)NC1CCOC1=O (stereo not given)
[5]
  EC50: > 6 µM

## O=C(CSCc1ccccc1)NC1CCOC1=O (stereo not given)
[2]
  IC50: 2 to 3 µM

## O=C(CC(=O)N[C@H]1CCOC1=O)CC1CCCCC1
[5]
  EC50: 1.1 µM

## O=C(Cc1ccccc1)CS(=O)(=O)NC1CCOC1=O (stereo not given)
[2]
  IC50: 40 µM

## CCCCCCCCCSCC(=O)N[C@H]1CCOC1=O
[3]
  IC50: 50 µM

## CCCCCC(=O)CC(=O)N[C@H]1CCOC1=O
[6]
  EC50: 4.5 µM
[1]
  IC50: 0.078 µM

## O=C(CCCOc1ccc(Cl)cc1)N[C@H]1CCOC1=O
[6]
  EC50: 33 µM
[1]
  IC50: 0.49 µM

## CC(C)CC(=O)CC(=O)N[C@H]1CCOC1=O
[5]
  EC50: 0.5 µM

## O=C(CC(=O)NC1CCOC1=O)Cc1ccccc1Cl (stereo not given)
[2]
  IC50: 6 µM

## CCCCCCCCS(=O)(=O)NC1CCOC1=O (stereo not given)
[2]
  IC50: 10 µM

## CCCCCCCCCC(=O)CC(=O)CCNC1CCCCC1=O (stereo not given)
[7]
  inhibition: 35%

## CCC(=O)Oc1c(-c2ccccc2Cl)oc2ccccc2c1=O
HL
  Activity: 11.2%
[8]
  IC50: 9.6 µM
Pseudomonas aeruginosa [9]
  inhibition: 27.2%
Pseudomonas aeruginosa [10]
  inhibition: 11.2%
[11]
  inhibition: 72.1%
[12]
  inhibition: 51.3%
[13]
  inhibition: 42.3%
RAW264.7
  Activity: 97.7%
[14]
  inhibition: 99.7%

## O=C(CC(=O)NC1CCOC1=O)Cc1ccc(Br)cc1 (stereo not given)
[2]
  IC50: 2 µM

## CCC(=O)CC(=O)NC1CCCCC1=O (stereo not given)
[15]
  EC50: > 200 µM
[16]
  IC50: > 100 µM
[6]
  EC50: 0.24 µM

## O=C(COc1cccc(Br)c1)N[C@H]1CCSC1=O
[15]
  EC50: 4.2 µM
[6]
  EC50: 0.013 µM

## CCCCCCCCCC(=O)CC(=O)CCN[C@H]1CCC[C@@H]1O
[7]
  inhibition: 70%

## CCCC(=O)CS(=O)(=O)NC1CCOC1=O (stereo not given)
[2]
  IC50: 40 µM

## O=C(Cc1ccc(Br)cc1)N[C@H]1CCOC1=O
[1]
  IC50: 3.5 µM
[4]
  IC50: 3.7 µM

## CCCCCCCCC(=O)CC(=O)Nc1cccc(OC)c1
[17]
  inhibition: 74%

## CCCCCCCCCC(=O)NC1CCCC1 [N-CYCLOPENTYLDECANAMIDE]
[16]
  IC50: > 50 µM
[18]
  IC50: 80 µM

## CCCCCCCCC(=O)CC(=O)Nc1ccccc1
[19]
  IC50: 5.5 µM

## CCCCCCCCCNC(=O)CC(=O)Cc1ccccc1
[20]
  IC50: 2 µM
[21]
  IC50: 15 µM

## O=C(CC(=O)NC1CCOC1=O)Cc1ccc(C(F)(F)F)cc1 (stereo not given)
[2]
  IC50: 10 µM

## O=C1OCCC1NS(=O)(=O)CCc1ccccc1 (stereo not given)
[2]
  IC50: 3 µM

## O=C(Cc1ccc(C(F)(F)F)cc1)N[C@H]1CCOC1=O
[15]
  EC50: 140 µM
[16]
  IC50: 3 µM
[6]
  EC50: 0.65 µM
[4]
  IC50: 0.6 µM

## CCCCCCCCCC(=O)Oc1c(-c2ccc(OC)cc2)oc2ccccc2c1=O
[8]
  IC50: 13.9 µM
Pseudomonas aeruginosa [9]
  inhibition: 22.5%
Pseudomonas aeruginosa [10]
  inhibition: 28.1%
[11]
  inhibition: 69.8%
[12]
  inhibition: 14.3%
[13]
  inhibition: 11.6%
[14]
  inhibition: 83.5%

## O=C(CC(=O)N[C@H]1CCOC1=O)Cc1ccccc1
[1]
  IC50: 2.8 µM

## O=C(CCCc1ccccc1)NC1CCOC1=O (stereo not given)
[2]
  IC50: 2 to 3 µM

## O=C1OCCC1NS(=O)(=O)Cc1ccccc1 (stereo not given)
[2]
  IC50: 40 µM

## CCCCCCCS(=O)(=O)NC1CCOC1=O (stereo not given)
[2]
  IC50: 9 µM

## O=C(CCc1ccc(Br)cc1)N[C@H]1CCOC1=O
[6]
  EC50: 8.4 µM
[1]
  IC50: 0.16 µM

## CCC(=O)CC(=O)Nc1ccccc1
[16]
  IC50: 9.7 µM
[6]
  EC50: 0.92 µM

## CCC(=O)CC(=O)Nc1cccc(OC)c1
[16]
  IC50: > 200 µM
[6]
  EC50: > 100 µM
[1]
  IC50: 4.7 µM

## CCCCCCCSCC(=O)N[C@H]1CCOC1=O
[3]
  IC50: 6 µM

## O=C(Cc1ccc([N+](=O)[O-])cc1)N[C@H]1CCOC1=O
[4]
  IC50: 1 µM

## CCCCCCC[S+]([O-])CC(=O)NC1CCOC1=O (stereo not given)
[3]
  IC50: 50 µM

## CCCCS(=O)(=O)NC1CCOC1=O (stereo not given)
[2]
  IC50: 12 µM

## O=C(CC(=O)NC1CCOC1=O)Cc1ccccc1 (stereo not given)
[2]
  IC50: 2 µM

## CCCCCCC(=O)N[C@H]1CCOC1=O
[16]
  IC50: > 100 µM
[1]
  IC50: 2.8 µM
[4]
  IC50: 1.4 µM

## O=C(Cc1ccc(Cl)cc1)N[C@H]1CCOC1=O
[4]
  IC50: 4.1 µM

## CCCCCS(=O)(=O)NC1CCOC1=O (stereo not given)
[2]
  IC50: 2 µM

## O=C(NCc1cc(Br)cc(Br)c1OC(=O)c1ccccc1[N+](=O)[O-])c1ccccc1Cl
[6]
  EC50: 0.0078 µM

## CCCCCCS(=O)(=O)NC1CCOC1=O (stereo not given)
[2]
  IC50: 6.5 µM

## O=C1OCCC1NS(=O)(=O)CCCc1ccccc1 (stereo not given)
[2]
  IC50: 20 µM

## O=C(CCCc1ccccc1)N[C@H]1CCOC1=O
[16]
  IC50: 175 µM
[1]
  IC50: 1 µM

## Cc1ccc(CC(=O)CC(=O)NC2CCOC2=O)cc1 (stereo not given)
[2]
  IC50: 4 µM

## O=C(COCc1ccccc1)NC1CCOC1=O (stereo not given)
[2]
  IC50: 2 to 3 µM

## CCC(=O)CC(=O)Nc1ccccc1O
[15]
  EC50: 17 µM
[6]
  EC50: 0.096 µM

## O=C(CC(=O)N[C@H]1CCOC1=O)CC1CCCC1
[5]
  EC50: 0.25 µM

## O=C(Nc1ccccc1NC(=O)c1cccc(Cl)c1)c1cccc(Cl)c1
[1]
  IC50: 70 µM

## O=C(Cc1ccc(-c2ccccc2)cc1)N[C@H]1CCOC1=O
[4]
  IC50: 1.1 µM

## CCCCCCCCCS(=O)(=O)NC1CCOC1=O (stereo not given)
[2]
  IC50: 40 µM

## O=C(CC(=O)NC1CCOC1=O)Cc1cccc(Cl)c1 (stereo not given)
[2]
  IC50: 4 µM

## N#CSCC(=O)CC(=O)N[C@H]1CCOC1=O
[15]
  EC50: 2.6 µM
[6]
  EC50: 0.017 µM

## COc1ccc(CC(=O)CC(=O)NC2CCOC2=O)cc1 (stereo not given)
[2]
  IC50: 3 µM

## CCCCCCCCCC(=O)N[C@H]1CCSC1=O
[22]
  IC50: 0.13 µM
